Reference: publication PMC11822212, “High-throughput screening identifies Aurora kinase B as a critical therapeutic target for Merkel cell carcinoma” (Nature Communications, 2025)
Where a name gives a salt, the structure may show the parent alone.

Experiments:
MCC13 cells (VN-MCC) = assay: qHTS cell viability (CellTiter-Glo, 72 h; primary and follow-up small molecule screen); format: cell-based, human
HEK293T cells = assay: qHTS cell viability (CellTiter-Glo, 72 h; primary screen), control cell line; format: cell-based, human
UISO cells (VN-MCC) = assay: qHTS cell viability (CellTiter-Glo, 72 h; primary and follow-up small molecule screen); format: cell-based, human
WAGA cells (VP-MCC) = assay: as above; format: cell-based, human
[1] = test system: MCC cell lines (WAGA, MKL-1, MKL-2, MCC13, MCC26, UISO); assay: qHTS cell viability, all six MCC cell lines as a group (mean AUC, MCC.avg); format: cell-based, human; settings: mean AUC of six MCC cell lines
MCC26 cells (VN-MCC) = assay: qHTS cell viability (CellTiter-Glo, 72 h; primary and follow-up small molecule screen); format: cell-based, human
CRL-7250 cells = assay: qHTS cell viability (CellTiter-Glo, 72 h; primary screen), control cell line; format: cell-based
MKL-2 cells (VP-MCC) = assay: qHTS cell viability (CellTiter-Glo, 72 h; primary and follow-up small molecule screen); format: cell-based, human
[2] = test system: VN-MCC cell lines (MCC13, MCC26, UISO); assay: qHTS cell viability, VN-MCC cell lines as a group (mean AUC, VN.MCC.avg); format: cell-based, human; settings: for VN-MCC_Avg_AUC: mean AUC of VN-MCC cell lines
HACAT cells = assay: qHTS cell viability (CellTiter-Glo, 72 h; primary screen), control cell line; format: cell-based, human
NIH-3T3 cells = assay: as above; format: cell-based, mouse
MKL-1 cells (VP-MCC) = assay: qHTS cell viability (CellTiter-Glo, 72 h; primary and follow-up small molecule screen); format: cell-based, human
[3] = test system: VP-MCC cell lines (WAGA, MKL-1, MKL-2); assay: qHTS cell viability, VP-MCC cell lines as a group (mean AUC, VP.MCC.avg); format: cell-based, human; settings: for VP-MCC_Avg_AUC: mean AUC of VP-MCC cell lines
[4] = test system: six MCC cell lines and four control cell lines; assay: qHTS cell viability, all 10 cell lines screened; format: cell-based
[5] = test system: control cell lines (HACAT, HEK293T, CRL-7250, NIH-3T3); assay: qHTS cell viability, control cell lines as a group (mean AUC, Control.avg); format: cell-based; settings: mean AUC of control cell lines
[6] = NPC library, qHTS dose-response AUC, MCC13
[7] = NPC library, qHTS dose-response AUC, HEK293T control
[8] = NPC library, qHTS dose-response AUC, UISO
[9] = NPC library, qHTS dose-response AUC, WAGA
[10] = NPC library, qHTS dose-response AUC, MCC26
[11] = NPC library, qHTS dose-response AUC, CRL7250 control
[12] = NPC library, qHTS dose-response AUC, MKL2
[13] = NPC library, therapeutic window: Control avg AUC minus VN-MCC avg AUC
[14] = NPC library, qHTS dose-response AUC, HACAT control
[15] = NPC library, qHTS dose-response AUC, NIH3T3 control
[16] = NPC library, qHTS dose-response AUC, MKL1
[17] = NPC library, therapeutic window: Control avg AUC minus VP-MCC avg AUC
[18] = NPC library, therapeutic window: Control avg AUC minus MCC avg AUC
[19] = MIPE library, 11-point DRC, sheet S2E
[20] = MIPE library, 11-point DRC, control cell line, sheet S2E
[21] = MIPE library, Control AUC minus VN-MCC AUC (therapeutic window), sheet S2E
[22] = MIPE library, Control AUC minus VP-MCC AUC (therapeutic window), sheet S2E
[23] = MIPE library, Control AUC minus MCC AUC (therapeutic window), sheet S2E

CCCCC(CC)CNC(=N)NC(=N)NCCCCCCNC(=N)NC(=N)NCC(CC)CCCC (stereo not drawn) [Alexidine dihydrochloride]
MCC13_AUC (MCC13 cells (VN-MCC); [6]): 392.522
HEK293T_AUC (HEK293T cells; [7]): 380.139
UISO_AUC (UISO cells (VN-MCC); [8]): 330.63
WAGA_AUC (WAGA cells (VP-MCC); [9]): 351.758
MCC_Avg_AUC ([1]; NPC library): 358.46
MCC26_AUC (MCC26 cells (VN-MCC); [10]): 401.146
CRL7250_AUC (CRL-7250 cells; [11]): 401.378
MKL2_AUC (MKL-2 cells (VP-MCC); [12]): 344.79
VN-MCC_Avg_AUC ([2]; NPC library): 374.766
Control-VN-MCC [2, 13]: 32.1955
HACAT_AUC (HACAT cells; [14]): 392.766
NIH3T3_AUC (NIH-3T3 cells; [15]): 453.563
MKL1_AUC (MKL-1 cells (VP-MCC); [16]): 329.916
VP-MCC_Avg_AUC ([3]; NPC library): 342.155
Control-VP-MCC [3, 17]: 64.8071
Control-MCC [4, 18]: 48.5013
Control_Avg_AUC ([5]; NPC library): 406.962

CC(=O)SCC(Cc1ccccc1)C(=O)NCC(=O)OCc1ccccc1 (stereo not drawn) [Racecadotril]
MCC13_AUC (MCC13 cells (VN-MCC); [19]): 461.58
MCC13_AUC (MCC13 cells (VN-MCC); area under the dose-response curve, MCC13 cells, AUC<450 = reduced viability): 485.077
HEK293T_AUC (HEK293T cells; [20]): 456.066
HEK293T_AUC (HEK293T cells; area under the dose-response curve, HEK293T control cells, AUC<450 = reduced viability): 472.387
UISO_AUC (UISO cells (VN-MCC); [19]): 428.805
UISO_AUC (UISO cells (VN-MCC); area under the dose-response curve, UISO cells, AUC<450 = reduced viability): 451.995
WAGA_AUC (WAGA cells (VP-MCC); [19]): 280.978
WAGA_AUC (WAGA cells (VP-MCC); area under the dose-response curve, WAGA cells, AUC<450 = reduced viability): 389.872
MCC_Avg_AUC ([1]; MIPE library, sheet S2E): 374.417
MCC26_AUC (MCC26 cells (VN-MCC); [19]): 488.688
MCC26_AUC (MCC26 cells (VN-MCC); area under the dose-response curve, MCC26 cells, AUC<450 = reduced viability): 492.456
CRL7250_AUC (CRL-7250 cells; [20]): 474.01
CRL7250_AUC (CRL-7250 cells; area under the dose-response curve, CRL7250 control cells, AUC<450 = reduced viability): 474.054
MKL2_AUC (MKL-2 cells (VP-MCC); [19]): 282.974
MKL2_AUC (MKL-2 cells (VP-MCC); area under the dose-response curve, MKL-2 cells, AUC<450 = reduced viability): 385.069
Control-VN-MCC [2, 21]: 11.6784
VN-MCC_Avg_AUC ([2]; MIPE library, sheet S2E): 459.691
HACAT_AUC (HACAT cells; [20]): 479.748
HACAT_AUC (HACAT cells; area under the dose-response curve, HACAT control cells, AUC<450 = reduced viability): 454.884
NIH3T3_AUC (NIH-3T3 cells; [20]): 475.653
NIH3T3_AUC (NIH-3T3 cells; area under the dose-response curve, NIH3T3 control cells, AUC<450 = reduced viability): 480.677
MKL1_AUC (MKL-1 cells (VP-MCC); [19]): 303.479
MKL1_AUC (MKL-1 cells (VP-MCC); area under the dose-response curve, MKL-1 cells, AUC<450 = reduced viability): 393.26
Control-VP-MCC [3, 22]: 182.226
VP-MCC_Avg_AUC ([3]; MIPE library, sheet S2E): 289.144
Control-MCC [4, 23]: 96.952
Control_Avg_AUC ([5]; MIPE library, sheet S2E): 471.369

c1ccc(CC2=NCCN2)cc1 [Tolazoline hydrochloride]
MCC13_AUC (MCC13 cells (VN-MCC); [6]): 452.083
HEK293T_AUC (HEK293T cells; [7]): 454.352
UISO_AUC (UISO cells (VN-MCC); [8]): 451.588
WAGA_AUC (WAGA cells (VP-MCC); [9]): 433.154
MCC_Avg_AUC ([1]; NPC library): 420.949
MCC26_AUC (MCC26 cells (VN-MCC); [10]): 395.361
CRL7250_AUC (CRL-7250 cells; [11]): 475.841
MKL2_AUC (MKL-2 cells (VP-MCC); [12]): 397.927
VN-MCC_Avg_AUC ([2]; NPC library): 433.01
Control-VN-MCC [2, 13]: 27.3412
HACAT_AUC (HACAT cells; [14]): 471.166
NIH3T3_AUC (NIH-3T3 cells; [15]): 440.048
MKL1_AUC (MKL-1 cells (VP-MCC); [16]): 395.582
VP-MCC_Avg_AUC ([3]; NPC library): 408.888
Control-VP-MCC [3, 17]: 51.4641
Control-MCC [4, 18]: 39.4026
Control_Avg_AUC ([5]; NPC library): 460.352

CN1CCCC(n2nc(Cc3ccc(Cl)cc3)c3ccccc3c2=O)CC1 (stereo not drawn) [Azelastine hydrochloride]
MCC13_AUC (MCC13 cells (VN-MCC); [19]): 451.766
Area under the dose-response curve (AUC) MCC13 Replicate 1 (MCC13 cells (VN-MCC); follow-up screen, MCC13, replicate 1): 500.3
Area under the dose-response curve (AUC) MCC13 Replicate 2 (MCC13 cells (VN-MCC); follow-up screen, MCC13, replicate 2): 476.4
Area under the dose-response curve (AUC) MCC13 Replicate 3 (MCC13 cells (VN-MCC); follow-up screen, MCC13, replicate 3): 479.3
HEK293T_AUC (HEK293T cells; [20]): 458.798
UISO_AUC (UISO cells (VN-MCC); [19]): 426.293
Area under the dose-response curve (AUC) UISO Replicate 1 (UISO cells (VN-MCC); follow-up screen, UISO, replicate 1): 472.1
Area under the dose-response curve (AUC) UISO Replicate 2 (UISO cells (VN-MCC); follow-up screen, UISO, replicate 2): 488.6
Area under the dose-response curve (AUC) UISO Replicate 3 (UISO cells (VN-MCC); follow-up screen, UISO, replicate 3): 481.1
WAGA_AUC (WAGA cells (VP-MCC); [19]): 268.398
Area under the dose-response curve (AUC) WAGA Replicate 1 (WAGA cells (VP-MCC); follow-up screen, WAGA, replicate 1): 515.6
Area under the dose-response curve (AUC) WAGA Replicate 2 (WAGA cells (VP-MCC); follow-up screen, WAGA, replicate 2): 481.7
Area under the dose-response curve (AUC) WAGA Replicate 3 (WAGA cells (VP-MCC); follow-up screen, WAGA, replicate 3): 478.9
MCC_Avg_AUC ([1]; MIPE library, sheet S2E): 373.345
MCC26_AUC (MCC26 cells (VN-MCC); [19]): 431.003
Area under the dose-response curve (AUC) MCC26 Replicate 1 (MCC26 cells (VN-MCC); follow-up screen, MCC26, replicate 1): 450.4
Area under the dose-response curve (AUC) MCC26 Replicate 2 (MCC26 cells (VN-MCC); follow-up screen, MCC26, replicate 2): 432.6
Area under the dose-response curve (AUC) MCC26 Replicate 3 (MCC26 cells (VN-MCC); follow-up screen, MCC26, replicate 3): 475.6
CRL7250_AUC (CRL-7250 cells; [20]): 443.828
MKL2_AUC (MKL-2 cells (VP-MCC); [19]): 320.643
Area under the dose-response curve (AUC) MKL-2 Replicate 1 (MKL-2 cells (VP-MCC); follow-up screen, MKL-2, replicate 1): 463.4
Area under the dose-response curve (AUC) MKL-2 Replicate 2 (MKL-2 cells (VP-MCC); follow-up screen, MKL-2, replicate 2): 469.5
Area under the dose-response curve (AUC) MKL-2 Replicate 3 (MKL-2 cells (VP-MCC); follow-up screen, MKL-2, replicate 3): 473.5
Control-VN-MCC [2, 21]: 23.1078
VN-MCC_Avg_AUC ([2]; MIPE library, sheet S2E): 436.354
HACAT_AUC (HACAT cells; [20]): 463.226
NIH3T3_AUC (NIH-3T3 cells; [20]): 471.996
MKL1_AUC (MKL-1 cells (VP-MCC); [19]): 341.965
Area under the dose-response curve (AUC) MKL-1 Replicate 1 (MKL-1 cells (VP-MCC); follow-up screen, MKL-1, replicate 1): 494.5
Area under the dose-response curve (AUC) MKL-1 Replicate 2 (MKL-1 cells (VP-MCC); follow-up screen, MKL-1, replicate 2): 511.5
Area under the dose-response curve (AUC) MKL-1 Replicate 3 (MKL-1 cells (VP-MCC); follow-up screen, MKL-1, replicate 3): 475.2
Control-VP-MCC [3, 22]: 149.127
VP-MCC_Avg_AUC ([3]; MIPE library, sheet S2E): 310.335
Control-MCC [4, 23]: 86.1174
Control_Avg_AUC ([5]; MIPE library, sheet S2E): 459.462
